22 molecules from US9663514B2 (Takeda Pharmaceutical Company Limited, priority 2011, dated 2017) can be followed below.

In this test the target is T1, SYK (Homo sapiens, UniProt P43405).
T1 construct: The SYK kinase domain (residues 356-635) is amplified via PCR; made in house; host or cells: Sf9 insect cells (baculovirus, pFastBac1)
As to the kind of experiment: SYK inhibition: in vitro assay of SYK-mediated phosphorylation of FAM-labeled substrate (Caliper LC-3000). It is filed as biochemical. To be noted: SYK kinase domain (residues 356-635); 2.4 nM SYK and 45 μM ATP, 3 μM 5FAM-KKKKEEIYFFFG-NH2, RT 60 min, pH 7.3; pIC50 = −log(IC50), IC50 molar. The protocol: The ability of compounds to inhibit SYK activity may be assessed using a variety of methods, including in vitro and in vivo assays. The following in vitro assay measures a test compound's ability to inhibit SYK-mediated phosphorylation of a FAM-labeled SYK-specific substrate (5FAM-KKKKEEIYFFFG-NH2).
SYK protein is prepared from cDNA encoding human spleen tyrosine kinase and is expressed in insect cells using a baculovirus expression vector. The cDNA (IMAGE: 3542895) is purchased from Open Biosystems. The SYK kinase domain (residues 356-635) is amplified via PCR and cloned into plasmid pFastBacl (Invitrogen) at BamHI/XbaI sites. Recombinant plasmid encoding Met-Ala-Lys-SYK(356-635)-HHHHHH is sequenced and transformed into E. coli DH10Bac strain. The recombinant bacmid DNA is isolated and transfected into Sf9 insect cells. Recombinant virus is harvested 72 h after transfection. High titer viral stock is prepared by infecting Sf9 cells at a multiplicity of infection (MOI) of approximately 0.01. A suspension of Sf9 cells (10 L) is infected with recombinant virus (MOI=5) and is incubated in a Wave Bioreactor (GE-Healthcare) for 48 h. The cells are harvested and stored at −80° C.
To purify the expressed protein, the frozen Sf9 cells (10 L) are broken into small (<1 cm) particles and suspended in a lysis buffer (300 mL) containing 20 mM Tris (pH 7.6), 0.25 mM TCEP, 100 mM NaCl, 5% glycerol and a protease inhibitor. The suspension is stirred at RT until completely thawed, lysed an additional 2-4 min on a rotary blade homogenizer, and then centrifuged at 4200 g for 1 h. Following centrifugation, the supernatant is poured through cheese cloth and combined with a nickel chelating resin (Probond Resin™, Invitrogen) which is pre-equilibrated in a wash buffer containing 10 mM Tris (pH 7.6), 0.25 mM TCEP, 300 mM NaCl, 5% glycerol, and 20 mM imidazole. The mixture is agitated for 3 h in a cold room and then centrifuged at 900 g for 10 min. The resin is dispersed in wash buffer (50 mL), centrifuged for 10 min at 900 g, re-dispersed in a small amount of wash buffer (5 mL), and then pour into a disposable Poly-Prep chromatography column, through which wash buffer is passed by gravity until no protein is observed in coomassie buffer (about 120 mL of wash buffer). An elution buffer (30 mL) containing 10 mM HEPES (pH 7.4), 150 mM NaCl, 10% glycerol, 5 mM DTT, and 400 mM imidazole is used to elute the SYK protein from the resin. The eluate is concentrated (5 mL) and further purified on a Superdex 200 column (1.2 mL/min for 160 min, 10 mM HEPES (pH 7.4), 10 mM NaCl, 10 mM MgCl, 0.1 mM EDTA, and 0.25 mM TCEP). The chromatographed fractions are run on SDS-PAGE and the requisite fractions are pooled and concentrated. Final delivery buffer is 10 mM HEPES (pH 7.4), 10 mM Methione, 150 mM NaCl, 10% glycerol, 5 mM DTT.
SYK inhibition is determined using a black 384 well plate format in buffer containing 50 mM HEPES, 10 mM NaCl, 10 mM MgCl2, 0.2 mM EDTA, 0.01% EDA (Brij®35), 1 mM DTT, and 0.1 mg/ml BSA at pH 7.3. Each test compound is prepared in DMSO using 2-fold serial dilutions for 11 data points, which are added to the buffer so that each dilution contains 3% DMSO. To each well is added 2 μL of 3 μM SFAM-KKKKEEIYFFFG-NH2 (in buffer), 2 μL of diluted test compound (3% DMSO in buffer), and 2 μL of 2.4 nM SYK and 45 μM ATP (in buffer). The reaction mixture is incubated at RT for 60 min, and quenched by adding 50 mM Hepes, 30 mM EDTA, 0.1% Triton X-100 (pH 7.3). To quantify the fluorescent-labeled substrate and product following reaction, the test plate is loaded on a Caliper LC-3000, which measures percent of conversion by microfluidic-based separation. Corresponding IC50 values are calculated by non-linear curve fitting of the compound concentrations and percent of inhibition to the standard IC50 equation and reported as pIC50, i.e., −log(IC50), where IC50 is molar concentration.

For `N[C@H]1COCC[C@H]1Nc1nc(-c2cc(C(F)F)ns2)c2c(c1F)CNC2=O` [Example 1, 6-((3R,4R)-3-Aminotetrahydro-2H-pyran-4-ylamino)-4-(3-(difluoromethyl)isothiazol-5-yl)-7-fluoro-1H-pyrrolo[3,4-c]pyridin-3(2H)-one], the IC50 (usually the concentration that inhibits the measured activity by half) is 50.1 nM.
The molecule `CCc1cc(-c2nc(N[C@@H]3CCOC[C@@H]3N)c(F)c3c2C(=O)NC3)sn1` [Example 2, 6-((3R,4R)-3-Aminotetrahydro-2H-pyran-4-ylamino)-4-(3-ethylisothiazol-5-yl)-7-fluoro-1H-pyrrolo[3,4-c]pyridin-3(2H)-one] had an IC50 of 3.98 nM.
For `CCc1cc(-c2nc(N[C@@H]3CCCC[C@@H]3N)c(F)c3c2C(=O)NC3)sn1` [Example 3, 6-((1R,2S)-2-Aminocyclohexylamino)-4-(3-ethylisothiazol-5-yl)-7-fluoro-1H-pyrrolo[3,4-c]pyridin-3 (2H)-one] the value was 1.26 nM; for `N[C@H]1COCC[C@H]1Nc1nc(-c2ccns2)c2c(c1F)CNC2=O` [Example 4, 6-((3R,4R)-3-Aminotetrahydro-2H-pyran-4-ylamino)-7-fluoro-4-(isothiazol-5-yl)-1H-pyrrolo[3,4-c]pyridin-3(2H)-one], 12.6 nM.
On to `N[C@H]1CCCC[C@H]1Nc1nc(-c2ccns2)c2c(c1F)CNC2=O` [Example 5, 6-((1R,2S)-2-Aminocyclohexylamino)-7-fluoro-4-(isothiazol-5-yl)-1H-pyrrolo[3,4-c]pyridin-3 (2H)-one], for which it took 3.98 nM to reach half-maximal inhibition (IC50).
In the case of `N[C@H]1COCC[C@H]1Nc1nc(-c2cc(C3CC3)ns2)c2c(c1F)CNC2=O` [Example 6, 6-((3R,4R)-3-Aminotetrahydro-2H-pyran-4-ylamino)-4-(3-cyclopropylisothiazol-5-yl)-7-fluoro-1H-pyrrolo[3,4-c]pyridin-3(2H)-one], half-maximal inhibition (IC50) was put at 0.794 nM.
For `N[C@H]1COCC[C@H]1Nc1nc(-c2cc3cc(F)ccc3s2)c2c(c1F)CNC2=O` [Example 7, 6-((3R,4R)-3-Aminotetrahydro-2H-pyran-4-ylamino)-7-fluoro-4-(5-fluorobenzo[b]thiophen-2-yl)-1H-pyrrolo[3,4-c]pyridin-3(2H)-one] the value was 0.2 nM; for `N#Cc1ccc(-c2nc(N[C@@H]3CCOC[C@@H]3N)c(F)c3c2C(=O)NC3)s1` [Example 8, 5-(6-((3R,4R)-3-Aminotetrahydro-2H-pyran-4-ylamino)-7-fluoro-3-oxo-2,3-dihydro-1H-pyrrolo[3,4-c]pyridin-4-yl)thiophene-2-carbonitrile], 20 nM.
For `N[C@H]1COCC[C@H]1Nc1nc(-c2cc3ccncc3s2)c2c(c1F)CNC2=O` [Example 9, 6-((3R,4R)-3-Aminotetrahydro-2H-pyran-4-ylamino)-7-fluoro-4-(thieno[2,3-c]pyridin-2-yl)-1H-pyrrolo[3,4-c]pyridin-3(2H)-one] the value was 0.2 nM; for `N[C@H]1COCC[C@H]1Nc1nc(-c2ccc(F)s2)c2c(c1F)CNC2=O` [Example 12, 6-((3R,4R)-3-Aminotetrahydro-2H-pyran-4-ylamino)-7-fluoro-4-(5-fluorothiophen-2-yl)-1H-pyrrolo[3,4-c]pyridin-3(2H)-one], 12.6 nM.
The molecule `N[C@H]1COCC[C@H]1Nc1nc(-c2cc3cccnc3s2)c2c(c1F)CNC2=O` [Example 13, 6-((3R,4R)-3-Aminotetrahydro-2H-pyran-4-ylamino)-7-fluoro-4-(thieno[2,3-b]pyridin-2-yl)-1H-pyrrolo[3,4-c]pyridin-3(2H)-one] had an IC50 of 0.251 nM.
For `N[C@H]1CCCC[C@H]1Nc1nc(-c2cc3cccnc3s2)c2c(c1F)CNC2=O` [Example 14, 6-((1R,2S)-2-Aminocyclohexylamino)-7-fluoro-4-(thieno[2,3-b]pyridin-2-yl)-1H-pyrrolo[3,4-c]pyridin-3(2H)-one], half-maximal inhibition (IC50) was put at 0.158 nM.
As for `N[C@H]1CCCC[C@H]1Nc1nc(-c2cc3ccncc3s2)c2c(c1F)CNC2=O` [Example 15, 6-((1R,2S)-2-Aminocyclohexylamino)-7-fluoro-4-(thieno[2,3-c]pyridin-2-yl)-1H-pyrrolo[3,4-c]pyridin-3(2H)-one], the figure is 0.158 nM; as for `N[C@H]1CCCC[C@H]1Nc1nc(-c2cc3cc(F)ccc3s2)c2c(c1F)CNC2=O` [Example 16, 6-(((1R,2S)-2-Aminocyclohexyl)amino)-7-fluoro-4-(5-fluorobenzo[b]thiophen-2-yl)-1H-pyrrolo[3,4-c]pyridin-3(2H)-one], 0.316 nM.
In the case of `N[C@H]1COCC[C@H]1Nc1nc(-c2cc3cnccc3s2)c2c(c1F)CNC2=O` [Example 17, 6-((3R,4R)-3-Aminotetrahydro-2H-pyran-4-ylamino)-7-fluoro-4-(thieno[3,2-c]pyridin-2-yl)-1H-pyrrolo[3,4-c]pyridin-3(2H)-one], the IC50 is 0.251 nM.
As for `N[C@H]1CCCC[C@H]1Nc1nc(-c2cc3cnccc3s2)c2c(c1F)CNC2=O` [Example 18, 6-((1R,2S)-2-Aminocyclohexylamino)-7-fluoro-4-(thieno[3,2-c]pyridin-2-yl)-1H-pyrrolo[3,4-c]pyridin-3(2H)-one], the figure is 0.316 nM; as for `N[C@H]1COCC[C@H]1Nc1nc(-c2cc3ccc(F)cc3s2)c2c(c1F)CNC2=O` [Example 19, 6-((3R,4R)-3-Aminotetrahydro-2H-pyran-4-ylamino)-7-fluoro-4-(6-fluorobenzo[b]thiophen-2-yl)-1H-pyrrolo[3,4-c]pyridin-3(2H)-one], 0.158 nM; as for `N[C@H]1CCCC[C@H]1Nc1nc(-c2cc3ccc(F)cc3s2)c2c(c1F)CNC2=O` [Example 20], 0.251 nM.
`N#Cc1ccc2sc(-c3nc(N[C@@H]4CCOC[C@@H]4N)c(F)c4c3C(=O)NC4)cc2c1` [Example 21, 2-(6-((3R,4R)-3-Aminotetrahydro-2H-pyran-4-ylamino)-7-fluoro-3-oxo-2,3-dihydro-1H-pyrrolo[3,4-c]pyridin-4-yl)benzo[b]thiophene-5-carbonitrile] had an IC50 of 0.316 nM.
For `N#Cc1ccc2sc(-c3nc(N[C@@H]4CCCC[C@@H]4N)c(F)c4c3C(=O)NC4)cc2c1` [Example 22, 2-(6-((1R,2S)-2-Aminocyclohexylamino)-7-fluoro-3-oxo-2,3-dihydro-1H-pyrrolo[3,4-c]pyridin-4-yl)benzo[b]thiophene-5-carbonitrile], the IC50 was 0.126 nM.
As for `N[C@H]1COCC[C@H]1Nc1nc(-c2cc3c(F)cccc3s2)c2c(c1F)CNC2=O` [Example 23, 6-((3R,4R)-3-Aminotetrahydro-2H-pyran-4-ylamino)-7-fluoro-4-(4-fluorobenzo[b]thiophen-2-yl)-1H-pyrrolo[3,4-c]pyridin-3(2H)-one], the figure is 0.398 nM; as for `N[C@H]1CCCC[C@H]1Nc1nc(-c2cc3c(F)cccc3s2)c2c(c1F)CNC2=O` [Example 24, 6-((1R,2S)-2-Aminocyclohexylamino)-7-fluoro-4-(4-fluorobenzo[b]thiophen-2-yl)-1H-pyrrolo[3,4-c]pyridin-3(2H)-one], 0.398 nM.
